These results are taken from ChEMBL document CHEMBL3867448, “Targeted Isolation of Indolopyridoquinazoline Alkaloids from Conchocarpus fontanesianus Based on Molecular Networks” (2016).

Assay [1] has as its system Candida albicans. Briefly: Antifungal activity against Candida albicans DSY2621 by MTT assay. It counts as functional. On the technique in general: Formazan colour is commonly taken as a measure of viable cells.
For assay [2], the system named is Candida albicans. The experiment in a line: Antifungal activity against wild type Candida albicans CAF2-1 by MTT assay. In kind it is functional.

Structures are written as SMILES.

`COc1cccc2c3c(c(=O)[nH]c12)C=CC(C)(C)O3` returned an MIC with Candida albicans [1] of 15 µg.
Take `Clc1ccc(COC(Cn2ccnc2)c2ccc(Cl)cc2Cl)c(Cl)c1` (centres undefined) [MICONAZOLE]: the MIC against Candida albicans [1] and in the assay on Candida albicans [2] was 0.0006 µg in each case.
For the molecule `CC1(C)C=Cc2c(O)nc3ccccc3c2O1` [FLINDERSINE], in the assay with Candida albicans [1], the MIC came to 15 µg.
